Holding throughout (test): biochemical
What all share (type): binding

Assay [1] deals with T1, panel of 442 kinases (Homo sapiens, UniProt Q16512).
T1 construct: purchased Ambit Biosciences (scanMAXX KINOMEscan)
Conditions: kinase PKN1; for remaining activity at 1 µM: read-out: PKN1 (% of control at 1 µM).

The target of assay [2] is T2, panel of 442 kinases (Homo sapiens, UniProt P04629).
T2 construct: purchased Ambit Biosciences (scanMAXX KINOMEscan)
The following applies: kinase TRKA; for remaining activity at 1 µM: read-out: TRKA (% of control at 1 µM).

The target in assay [3] is T3, panel of 442 kinases (Homo sapiens, UniProt Q8NI60).
T3 construct: purchased Ambit Biosciences (scanMAXX KINOMEscan)
T3 sequence (Q8NI60 163-647): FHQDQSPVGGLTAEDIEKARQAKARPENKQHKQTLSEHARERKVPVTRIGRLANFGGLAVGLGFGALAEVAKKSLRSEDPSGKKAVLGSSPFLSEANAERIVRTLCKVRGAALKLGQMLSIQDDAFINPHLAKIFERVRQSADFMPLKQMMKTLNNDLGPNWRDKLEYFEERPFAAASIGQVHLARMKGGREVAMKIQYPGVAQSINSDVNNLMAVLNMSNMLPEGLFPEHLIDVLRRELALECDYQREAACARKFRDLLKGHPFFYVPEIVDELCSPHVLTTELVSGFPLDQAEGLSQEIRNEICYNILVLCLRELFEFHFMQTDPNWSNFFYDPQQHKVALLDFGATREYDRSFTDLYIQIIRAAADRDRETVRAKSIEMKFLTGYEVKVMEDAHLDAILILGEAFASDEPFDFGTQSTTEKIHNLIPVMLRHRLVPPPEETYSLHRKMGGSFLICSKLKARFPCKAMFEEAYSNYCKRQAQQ
The following applies: ADCK3; for remaining activity at 1 µM: read-out: % of control at 1 µM.

The target in assay [4] is T4, panel of 442 kinases (Homo sapiens, UniProt P11802).
T4 construct: purchased Ambit Biosciences (scanMAXX KINOMEscan)
T4 sequence (P11802 whole entry): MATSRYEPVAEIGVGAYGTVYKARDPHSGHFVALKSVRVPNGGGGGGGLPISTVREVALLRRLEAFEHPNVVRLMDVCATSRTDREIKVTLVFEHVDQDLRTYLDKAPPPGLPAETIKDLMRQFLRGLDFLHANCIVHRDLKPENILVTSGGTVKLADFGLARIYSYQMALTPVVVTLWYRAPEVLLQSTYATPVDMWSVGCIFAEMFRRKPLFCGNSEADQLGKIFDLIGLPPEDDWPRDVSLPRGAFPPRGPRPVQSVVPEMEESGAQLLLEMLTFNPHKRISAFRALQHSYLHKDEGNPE
Conditions: for remaining activity at 1 µM: read-out: % of control at 1 µM; for remaining activity at 10 µM: read-out: % of control at 10 µM.

In assay [5] the target is T5, panel of 442 kinases (Homo sapiens, UniProt Q9H3Y6).
T5 construct: purchased Ambit Biosciences (scanMAXX KINOMEscan)
T5 sequence (Q9H3Y6 whole entry): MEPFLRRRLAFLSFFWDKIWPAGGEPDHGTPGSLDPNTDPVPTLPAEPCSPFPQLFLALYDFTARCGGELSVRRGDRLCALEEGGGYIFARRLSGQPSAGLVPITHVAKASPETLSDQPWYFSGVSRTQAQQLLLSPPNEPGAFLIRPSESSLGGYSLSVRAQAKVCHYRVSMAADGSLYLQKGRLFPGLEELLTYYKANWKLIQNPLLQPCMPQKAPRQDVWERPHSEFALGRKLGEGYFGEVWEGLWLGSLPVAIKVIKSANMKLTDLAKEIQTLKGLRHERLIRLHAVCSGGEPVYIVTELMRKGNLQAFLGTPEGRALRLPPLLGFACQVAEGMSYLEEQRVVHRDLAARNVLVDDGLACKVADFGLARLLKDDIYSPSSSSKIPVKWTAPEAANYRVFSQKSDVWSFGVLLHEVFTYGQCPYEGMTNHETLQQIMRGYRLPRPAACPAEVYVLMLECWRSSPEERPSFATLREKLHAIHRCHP
The following applies: kinase SRMS; for remaining activity at 1 µM: read-out: SRMS (% of control at 1 µM).

The target in assay [6] is T6, panel of 442 kinases (Homo sapiens, UniProt P28482).
T6 construct: purchased Ambit Biosciences (scanMAXX KINOMEscan)
T6 sequence (P28482 whole entry): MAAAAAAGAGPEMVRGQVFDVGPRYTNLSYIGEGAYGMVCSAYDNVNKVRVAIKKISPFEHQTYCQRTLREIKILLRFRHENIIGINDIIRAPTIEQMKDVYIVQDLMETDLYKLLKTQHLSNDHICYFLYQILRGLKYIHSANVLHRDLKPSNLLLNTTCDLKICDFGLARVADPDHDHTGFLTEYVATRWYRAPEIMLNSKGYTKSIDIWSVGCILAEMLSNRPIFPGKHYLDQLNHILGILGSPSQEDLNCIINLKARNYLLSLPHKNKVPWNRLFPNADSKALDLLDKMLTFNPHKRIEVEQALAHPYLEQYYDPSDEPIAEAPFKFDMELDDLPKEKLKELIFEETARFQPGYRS
The following applies: ERK2; for remaining activity at 1 µM: read-out: % of control at 1 µM.

The target in assay [7] is T7, panel of 442 kinases (Homo sapiens, UniProt P00533, L858R).
T7 construct: purchased Ambit Biosciences (scanMAXX KINOMEscan)
T7 sequence (P00533 25-1210 L858R): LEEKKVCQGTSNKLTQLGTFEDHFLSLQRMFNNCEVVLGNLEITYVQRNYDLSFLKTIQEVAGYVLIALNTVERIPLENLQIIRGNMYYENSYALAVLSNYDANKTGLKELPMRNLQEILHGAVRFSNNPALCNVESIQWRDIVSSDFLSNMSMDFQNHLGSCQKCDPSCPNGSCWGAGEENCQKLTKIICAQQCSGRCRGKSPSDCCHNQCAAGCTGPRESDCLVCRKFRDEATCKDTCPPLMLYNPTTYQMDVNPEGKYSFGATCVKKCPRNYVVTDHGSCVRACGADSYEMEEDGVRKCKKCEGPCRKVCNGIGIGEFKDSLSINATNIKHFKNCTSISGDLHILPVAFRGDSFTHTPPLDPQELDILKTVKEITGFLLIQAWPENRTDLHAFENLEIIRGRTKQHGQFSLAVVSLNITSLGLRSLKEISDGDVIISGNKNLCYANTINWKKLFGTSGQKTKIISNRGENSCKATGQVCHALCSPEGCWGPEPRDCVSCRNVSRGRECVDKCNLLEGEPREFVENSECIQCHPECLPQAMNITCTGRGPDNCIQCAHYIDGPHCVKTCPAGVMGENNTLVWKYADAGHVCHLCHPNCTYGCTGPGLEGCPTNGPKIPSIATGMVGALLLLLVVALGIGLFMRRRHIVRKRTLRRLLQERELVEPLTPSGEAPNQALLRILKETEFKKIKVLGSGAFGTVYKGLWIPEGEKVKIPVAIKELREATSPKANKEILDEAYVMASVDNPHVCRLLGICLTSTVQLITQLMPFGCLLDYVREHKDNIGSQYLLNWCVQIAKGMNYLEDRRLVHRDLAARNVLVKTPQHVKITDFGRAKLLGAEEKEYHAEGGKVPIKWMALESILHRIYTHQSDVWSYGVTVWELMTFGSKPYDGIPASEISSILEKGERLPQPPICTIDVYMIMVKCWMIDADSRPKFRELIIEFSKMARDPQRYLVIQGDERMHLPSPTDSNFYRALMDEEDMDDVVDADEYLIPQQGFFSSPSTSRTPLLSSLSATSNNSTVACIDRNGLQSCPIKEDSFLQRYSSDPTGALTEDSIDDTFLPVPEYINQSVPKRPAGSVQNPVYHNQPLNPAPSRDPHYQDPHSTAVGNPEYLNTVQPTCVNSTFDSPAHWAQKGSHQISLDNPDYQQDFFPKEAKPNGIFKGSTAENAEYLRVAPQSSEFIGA
Conditions: EGFR(L858R); for remaining activity at 1 µM: read-out: % of control at 1 µM.

The target in assay [8] is T8, panel of 442 kinases (Homo sapiens, UniProt P51955).
T8 construct: purchased Ambit Biosciences (scanMAXX KINOMEscan)
T8 sequence (P51955 1-445): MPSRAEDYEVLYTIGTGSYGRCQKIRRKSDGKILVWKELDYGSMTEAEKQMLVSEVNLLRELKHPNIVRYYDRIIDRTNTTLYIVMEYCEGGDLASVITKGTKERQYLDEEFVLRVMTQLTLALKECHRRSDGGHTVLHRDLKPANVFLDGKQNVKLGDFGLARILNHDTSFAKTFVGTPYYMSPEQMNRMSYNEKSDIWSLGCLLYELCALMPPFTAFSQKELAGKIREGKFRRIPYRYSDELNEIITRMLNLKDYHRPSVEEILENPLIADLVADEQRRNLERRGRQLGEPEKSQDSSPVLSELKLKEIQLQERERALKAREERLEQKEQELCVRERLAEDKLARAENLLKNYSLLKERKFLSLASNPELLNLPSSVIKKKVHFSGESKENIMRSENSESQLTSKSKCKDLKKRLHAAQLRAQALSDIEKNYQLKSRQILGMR
The following applies: kinase NEK2; for remaining activity at 1 µM: read-out: % of control at 1 µM.

The target of assay [9] is T9, panel of 442 kinases (Homo sapiens, UniProt Q6ZN16).
T9 construct: purchased Ambit Biosciences (scanMAXX KINOMEscan)
T9 sequence (Q6ZN16 1-1313): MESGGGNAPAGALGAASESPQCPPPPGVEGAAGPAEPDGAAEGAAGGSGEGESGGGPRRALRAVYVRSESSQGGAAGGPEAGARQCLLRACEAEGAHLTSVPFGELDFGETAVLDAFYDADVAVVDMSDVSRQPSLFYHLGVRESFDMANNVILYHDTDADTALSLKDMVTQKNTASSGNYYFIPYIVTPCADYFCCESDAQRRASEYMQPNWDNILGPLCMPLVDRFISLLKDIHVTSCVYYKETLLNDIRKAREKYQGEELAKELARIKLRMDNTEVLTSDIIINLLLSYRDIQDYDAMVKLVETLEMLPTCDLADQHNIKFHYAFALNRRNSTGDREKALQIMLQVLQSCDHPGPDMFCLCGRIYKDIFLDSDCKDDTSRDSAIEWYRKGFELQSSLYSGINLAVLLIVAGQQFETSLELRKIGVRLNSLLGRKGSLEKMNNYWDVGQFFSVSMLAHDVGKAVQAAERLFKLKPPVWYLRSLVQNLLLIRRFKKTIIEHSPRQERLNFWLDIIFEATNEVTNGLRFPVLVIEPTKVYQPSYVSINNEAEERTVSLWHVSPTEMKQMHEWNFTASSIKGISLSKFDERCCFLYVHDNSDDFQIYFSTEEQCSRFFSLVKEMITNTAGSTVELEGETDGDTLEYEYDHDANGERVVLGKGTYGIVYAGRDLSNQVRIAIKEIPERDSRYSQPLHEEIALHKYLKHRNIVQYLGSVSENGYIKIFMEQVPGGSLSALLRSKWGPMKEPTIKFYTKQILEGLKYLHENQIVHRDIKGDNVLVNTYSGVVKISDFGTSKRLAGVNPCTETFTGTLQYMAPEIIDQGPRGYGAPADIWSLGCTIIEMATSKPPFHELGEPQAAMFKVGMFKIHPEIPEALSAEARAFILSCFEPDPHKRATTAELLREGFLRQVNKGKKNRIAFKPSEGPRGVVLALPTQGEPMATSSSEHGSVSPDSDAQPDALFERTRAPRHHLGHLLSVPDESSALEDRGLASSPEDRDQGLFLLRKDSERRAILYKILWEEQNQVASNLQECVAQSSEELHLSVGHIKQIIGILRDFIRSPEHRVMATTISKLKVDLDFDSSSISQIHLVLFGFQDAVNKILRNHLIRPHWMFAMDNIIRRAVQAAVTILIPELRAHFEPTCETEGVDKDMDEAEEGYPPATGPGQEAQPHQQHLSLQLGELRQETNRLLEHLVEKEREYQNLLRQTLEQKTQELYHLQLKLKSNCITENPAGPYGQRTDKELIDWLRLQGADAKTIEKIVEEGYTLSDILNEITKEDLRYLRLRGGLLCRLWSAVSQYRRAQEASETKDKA
The following applies: kinase MAP3K15; for remaining activity at 1 µM: read-out: % of control at 1 µM.

[10] abbreviates: 10 µM, read-out: % of control at 10 µM.

SMILES strings stand for the structures. Read-outs that look alike come from different tables or passages of the source.

T1 sequence (Q16512 whole entry): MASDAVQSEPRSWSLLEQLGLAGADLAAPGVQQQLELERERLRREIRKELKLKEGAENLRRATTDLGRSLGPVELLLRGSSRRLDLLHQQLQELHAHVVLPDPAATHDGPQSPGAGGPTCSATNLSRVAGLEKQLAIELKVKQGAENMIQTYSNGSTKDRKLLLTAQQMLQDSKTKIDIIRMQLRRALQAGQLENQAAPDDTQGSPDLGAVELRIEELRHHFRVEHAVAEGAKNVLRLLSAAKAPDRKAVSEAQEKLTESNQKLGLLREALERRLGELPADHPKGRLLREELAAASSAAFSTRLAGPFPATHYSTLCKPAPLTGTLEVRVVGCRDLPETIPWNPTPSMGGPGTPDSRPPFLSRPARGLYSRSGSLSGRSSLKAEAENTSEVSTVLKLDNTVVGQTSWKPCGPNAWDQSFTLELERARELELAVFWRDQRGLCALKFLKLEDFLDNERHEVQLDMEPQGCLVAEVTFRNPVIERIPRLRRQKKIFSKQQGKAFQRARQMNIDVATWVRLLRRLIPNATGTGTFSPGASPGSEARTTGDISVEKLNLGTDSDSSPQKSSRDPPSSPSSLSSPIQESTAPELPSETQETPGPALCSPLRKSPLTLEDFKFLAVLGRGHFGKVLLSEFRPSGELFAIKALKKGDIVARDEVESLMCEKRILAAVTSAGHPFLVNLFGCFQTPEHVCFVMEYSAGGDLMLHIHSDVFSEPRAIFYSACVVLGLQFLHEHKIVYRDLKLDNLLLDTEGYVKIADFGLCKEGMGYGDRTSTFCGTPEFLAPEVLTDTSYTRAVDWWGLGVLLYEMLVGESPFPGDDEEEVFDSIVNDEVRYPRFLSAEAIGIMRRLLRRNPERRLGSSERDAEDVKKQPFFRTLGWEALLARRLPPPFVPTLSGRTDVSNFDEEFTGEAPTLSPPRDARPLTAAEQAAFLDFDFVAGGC
T2 sequence (P04629 33-796): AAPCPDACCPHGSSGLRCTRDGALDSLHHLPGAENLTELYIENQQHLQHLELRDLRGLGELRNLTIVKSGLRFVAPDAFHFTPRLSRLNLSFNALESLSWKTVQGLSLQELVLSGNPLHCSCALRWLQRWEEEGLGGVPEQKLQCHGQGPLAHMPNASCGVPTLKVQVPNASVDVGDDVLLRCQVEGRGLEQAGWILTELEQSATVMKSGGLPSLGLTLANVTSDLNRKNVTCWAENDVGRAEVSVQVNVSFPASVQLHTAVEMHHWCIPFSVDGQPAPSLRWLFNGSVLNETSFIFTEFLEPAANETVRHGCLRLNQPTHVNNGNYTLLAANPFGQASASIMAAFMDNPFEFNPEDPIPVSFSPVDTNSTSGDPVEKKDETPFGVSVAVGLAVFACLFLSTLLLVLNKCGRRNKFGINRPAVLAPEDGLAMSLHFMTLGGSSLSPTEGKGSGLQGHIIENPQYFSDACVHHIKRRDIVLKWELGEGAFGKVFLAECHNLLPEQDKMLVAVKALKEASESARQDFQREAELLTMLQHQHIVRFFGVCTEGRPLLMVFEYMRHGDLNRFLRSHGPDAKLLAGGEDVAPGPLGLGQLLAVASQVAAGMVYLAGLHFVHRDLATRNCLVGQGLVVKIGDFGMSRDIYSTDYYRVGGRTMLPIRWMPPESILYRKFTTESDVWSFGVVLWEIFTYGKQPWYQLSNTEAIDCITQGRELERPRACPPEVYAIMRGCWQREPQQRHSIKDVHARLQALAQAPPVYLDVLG

`Nc1cc(C(F)(F)F)c(-c2cc(N3CCOCC3)nc(N3CCOCC3)n2)cn1` [Buparlisib]: the remaining activity at 1 µM was 89% on panel of 442 kinases [1]; 97% at panel of 442 kinases [2]; 100% at panel of 442 kinases [3]; 82% at panel of 442 kinases [4] (CDK4-cyclinD1); 91% at panel of 442 kinases [4] (CDK4-cyclinD3); 100% on panel of 442 kinases [5]. Further, the remaining activity at 1 µM came out at 100% at panel of 442 kinases [6], 100% on panel of 442 kinases [7], 84% on panel of 442 kinases [8] and 97% at panel of 442 kinases [9]. The remaining activity at 10 µM at panel of 442 kinases [1] (10 µM, read-out: PKN1 (% of control at 10 µM)) stood at 100%; on panel of 442 kinases [2] (10 µM, read-out: TRKA (% of control at 10 µM)), 80%; on panel of 442 kinases [3] (setting [10]), 89%; at panel of 442 kinases [4] (CDK4-cyclinD1) it was 100%; at panel of 442 kinases [4] (CDK4-cyclinD3) it was 100%; at panel of 442 kinases [5] (10 µM, read-out: SRMS (% of control at 10 µM)), 100%. Further, the remaining activity at 10 µM on panel of 442 kinases [6] (setting [10]) turned out to be 78%; on panel of 442 kinases [7] (setting [10]), 100%; at panel of 442 kinases [8] (setting [10]), 86%; on panel of 442 kinases [9] (setting [10]), 100%.
As to `Cn1c(=O)n(-c2ccc(C(C)(C)C#N)cc2)c2c3cc(-c4cnc5ccccc5c4)ccc3ncc21` [Dactolisib, 2-methyl-2-[4-(3-methyl-2-oxo-8-quinolin-3-yl-2,3-dihydroimidazo[4,5-c]quinolin-1-yl)-phenyl] propionitrile], the remaining activity at 1 µM came out at 100% at panel of 442 kinases [1]; 82% at panel of 442 kinases [3]; 100% at panel of 442 kinases [4] (CDK4-cyclinD1); 97% at panel of 442 kinases [4] (CDK4-cyclinD3); 88% at panel of 442 kinases [5]; 88% on panel of 442 kinases [6]. Also, the values for the remaining activity at 1 µM at panel of 442 kinases [8] and at panel of 442 kinases [9] were 88% and 100%, respectively.
In the case of `FC(F)c1nc2ccccc2n1-c1nc(N2CCOCC2)nc(N2CCOCC2)n1` [ZSTK474, 2-(difluoromethyl)-1-[4,6-di(4-morpholinyl)-1,3,5-triazin-2-yl]-1H-benzimidazole], the remaining activity at 1 µM at panel of 442 kinases [1] turned out to be 90%; on panel of 442 kinases [2], 100%; at panel of 442 kinases [3] it was 82%; at panel of 442 kinases [4] (CDK4-cyclinD1) it was 90%; at panel of 442 kinases [4] (CDK4-cyclinD3), 100%; on panel of 442 kinases [5] it was 80%. The remaining activity at 1 µM on panel of 442 kinases [6] turned out to be 100%; at panel of 442 kinases [7] it was 100%; at panel of 442 kinases [8], 87%; at panel of 442 kinases [9], 100%.
Regarding `COc1ncc(-c2ccc3nccc(-c4ccnnc4)c3c2)cc1NS(=O)(=O)c1ccc(F)cc1F` [Omipalisib], the remaining activity at 1 µM at panel of 442 kinases [1] worked out at 94%; on panel of 442 kinases [2], 80%; on panel of 442 kinases [3], 87%; on panel of 442 kinases [4] (CDK4-cyclinD1), 100%; on panel of 442 kinases [4] (CDK4-cyclinD3) it was 100%; at panel of 442 kinases [5] it was 90%. The remaining activity at 1 µM at panel of 442 kinases [6] stood at 100%; at panel of 442 kinases [7], 83%; on panel of 442 kinases [8], 100%; on panel of 442 kinases [9] it was 90%.

For the origin of these results see paper PMC5564600 (Oncotarget, 2017).
